From US9126941B2, “Treatment of hyperproliferative disorders with diarylhydantoin compounds” (The Regents of the University of California, priority 2005, dated 2015) come the findings set out here.

Test [1] addresses T1, AR (Homo sapiens, UniProt P10275). Briefly: cell-based. The class given is cell-based. The note with it: for IC50 (nM) Reporter: LNCaP-AR, 100 pM R1881, two days, No = did not inhibit AR response reporter; for Rank order, most active to least active, relative luciferase activity (FIG. 3): 500 nM. How it is done: The compounds were subjected to tests using an artificial AR response reporter system in a hormone refractory prostate cancer cell line. […] After two days of incubation, reporter activities were assayed.

Test [2] has as its target T1, AR. Briefly: cell-based. The class given is cell-based. The note with it: for PSA levels of LN-AR cells (FIG. 21): doses of 100, 200, 500 and 1000 nM. On the procedure: It is well established that PSA levels are indicators of AR activities in prostate cancer. […] The LNCaP-AR cells are a line of lymph node carcinoma of prostate cells transduced with a plasmid that makes express androgen receptors. […] After four days incubation, secreted PSA levels were assayed using PSA ELISA kits (American Qualex, San Clemente, Calif.)

Where two headings read alike, the source gives them in different places.

T1 sequence (P10275 whole entry, looked up): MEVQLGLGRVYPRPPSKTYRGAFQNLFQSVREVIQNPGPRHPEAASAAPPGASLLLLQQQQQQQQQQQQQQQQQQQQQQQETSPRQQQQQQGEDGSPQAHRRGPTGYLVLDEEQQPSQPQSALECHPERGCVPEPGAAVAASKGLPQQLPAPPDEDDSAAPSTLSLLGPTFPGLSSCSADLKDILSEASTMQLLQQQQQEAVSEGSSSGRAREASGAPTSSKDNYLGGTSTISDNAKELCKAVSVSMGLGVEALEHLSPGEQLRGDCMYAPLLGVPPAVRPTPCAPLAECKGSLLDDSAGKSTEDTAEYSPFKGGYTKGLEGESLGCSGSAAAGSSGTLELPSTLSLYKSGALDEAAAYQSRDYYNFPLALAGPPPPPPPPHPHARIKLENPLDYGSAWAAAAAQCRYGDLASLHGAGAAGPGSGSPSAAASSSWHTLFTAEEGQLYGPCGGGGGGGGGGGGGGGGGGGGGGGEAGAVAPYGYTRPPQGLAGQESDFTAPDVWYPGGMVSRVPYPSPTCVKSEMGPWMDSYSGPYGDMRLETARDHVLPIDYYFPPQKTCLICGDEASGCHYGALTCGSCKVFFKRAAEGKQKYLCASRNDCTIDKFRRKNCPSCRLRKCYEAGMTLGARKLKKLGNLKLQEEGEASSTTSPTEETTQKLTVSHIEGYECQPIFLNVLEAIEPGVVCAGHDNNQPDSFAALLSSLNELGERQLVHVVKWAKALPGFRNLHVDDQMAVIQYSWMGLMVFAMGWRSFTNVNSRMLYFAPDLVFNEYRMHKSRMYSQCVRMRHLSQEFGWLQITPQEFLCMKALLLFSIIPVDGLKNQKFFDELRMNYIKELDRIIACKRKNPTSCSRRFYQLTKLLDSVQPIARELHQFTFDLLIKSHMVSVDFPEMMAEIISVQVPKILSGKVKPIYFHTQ

By IC50 is commonly meant the concentration that inhibits the measured activity by half. Low values mean greater potency, high ones weaker potency. `CC1(C)C(=O)N(c2ccc(C#N)c(C(F)(F)F)c2)C(=S)N1c1ccccc1` [Example 6-2, 4-[3-phenyl-4,4-dimethyl-5-oxo-2-thioxoimidazolidin-1-yl]-2-trifluoromethylbenzonitrile] came in with an IC50 against AR [1] of 0.149 µM. That is a sub-micromolar value.
The compound `CC1(C)C(=O)N(c2ccc(C#N)c(C(F)(F)F)c2)C(=S)N1c1ccc(N)cc1` [RD9, 4-[3-(4-aminophenyl)-4,4-dimethyl-5-oxo-2-thioxoimidazolidin-1-yl]-2-trifluoromethylbenzonitrile] showed an IC50 against AR [1] of 0.273 µM.
With `CC1(C)C(=O)N(c2ccc(C#N)c(C(F)(F)F)c2)C(=S)N1c1ccc(OC(=O)CCl)cc1` [RD13, Chloroacetic acid 4-[3-(4-cyano-3-trifluoromethylphenyl)-5,5-dimethyl-4-oxo-2-thioxoimidazolidin-1-yl]phenyl ester], the IC50 at AR [1] was 0.131 µM.
On AR [1], `Cc1ccc(N2C(=S)N(c3ccc(C#N)c(C(F)(F)F)c3)C(=O)C23CCCC3)cc1` [RD35, 4-(4-oxo-2-thioxo-1-(4-methylphenyl)-1,3-diazaspiro[4.4]non-3-yl)-2-trifluoromethylbenzonitrile] yielded an IC50 of 0.147 µM.
`Cc1ccc(N2C(=S)N(c3ccc(C#N)c(C(F)(F)F)c3)C(=O)C23CCCCC3)cc1` [RD48, 4-(4-oxo-2-thioxo-1-(4-methylphenyl)-1,3-diazaspiro[4.5]dec-3-yl)-2-trifluoromethylbenzonitrile] displayed an IC50 at AR [1] of 0.194 µM.
With `CN1CCC2(CC1)NC(=S)N(c1ccc(C#N)c(C(F)(F)F)c1)C2=O` [RD52, 4-(8-methyl-4-oxo-2-thioxo-1,3,8-triazaspiro[4.5]dec-3-yl)-2-trifluoromethylbenzonitrile, reference compound], the “IC50 (nM) Reporter” value against AR [1] is “No”.
`Cc1ccc(N2C(=S)N(c3ccc(C#N)c(C(F)(F)F)c3)C(=O)C23CCN(C)CC3)cc1` [RD53, 4-(8-methyl-4-oxo-2-thioxo-1-(4-methylphenyl)-1,3,8-triazaspiro[4.5]dec-3-yl)-2-trifluoromethylbenzonitrile] showed an IC50 on AR [1] of 0.638 µM.
`N#Cc1ccc(N2C(=O)C3(CCCC3)N(c3ccc([N+](=O)[O-])cc3)C2=S)cc1C(F)(F)F` [RD55, 4-[1-(4-nitrophenyl)-4-oxo-2-thioxo-1,3-diazaspiro[4.4]non-3-yl]-2-trifluoromethylbenzonitrile] registered an IC50 on AR [1] of 0.498 µM.
The same measure, in the same setting: for `N#Cc1ccc(N2C(=O)C3(CCC3)N(c3ccc(-c4ccccc4)cc3)C2=S)cc1C(F)(F)F` [RD57, 4-(8-oxo-6-thioxo-5-(4-biphenyl)-5,7-diazaspiro[3.4]oct-7-yl)-2-trifluoromethylbenzonitrile] the value was 0.283 µM.
`N#Cc1ccc(N2C(=O)C3(CCC3)N(c3ccc(O)cc3)C2=S)cc1C(F)(F)F` [RD58, 4-(8-oxo-6-thioxo-5-(4-hydroxyphenyl)-5,7-diazaspiro[3.4]oct-7-yl)-2-trifluoromethylbenzonitrile] registered an IC50 on AR [1] of 0.162 µM. Compared with the last compound, the IC50 is about 1.7-fold lower.
On to `CC1(C)C(=S)N(c2ccc(C#N)c(C(F)(F)F)c2)C(=S)N1c1ccc(O)cc1` [RD59, 4-[3-(4-hydroxyphenyl)-4,4-dimethyl-2,5-dithioxoazolidin-1-yl]-2-trifluoromethylbenzonitrile], for which the IC50 on AR [1] worked out at 0.278 µM; against AR [2], 0.287 µM.
The matching figures for `CC1(C)C(=O)N(c2ccc(C#N)c(C(F)(F)F)c2)C(=S)N1c1ccccc1C(=O)O` [RD65, 2-[3-(4-cyano-3-trifluoromethylphenyl)-5,5-dimethyl-4-oxo-2-thioxoimidazolidin-1-yl]benzoic acid]: 0.523 µM and above 0.5 µM.
Consider `CC1(C)C(=O)N(c2ccc(C#N)c(C(F)(F)F)c2)C(=S)N1c1ccc(C(F)(F)F)cc1` [RD66, 4-(4,4-dimethyl-5-oxo-2-thioxo-3-(4-trifluoromethylphenyl)imidazolidin-1-yl)-2-trifluoromethylbenzonitrile], for which the IC50 at AR [1] amounted to 0.143 µM; against AR [2], 0.144 µM.
As for `CC1(C)C(=O)N(c2ccc(C#N)c(C(F)(F)F)c2)C(=S)N1c1ccccn1` [RD82, 4-[4,4-dimethyl-3-(4-pyridin-2-yl)-5-oxo-2-thioxoimidazolidin-1-yl]-2-trifluoromethylbenzonitrile], the IC50 against AR [1] came to 0.723 µM.
As for `Cc1ccnc(N2C(=S)N(c3ccc(C#N)c(C(F)(F)F)c3)C(=O)C2(C)C)c1` [RD83, 4-[4,4-dimethyl-3-(4-methylpyridin-2-yl)-5-oxo-2-thioxoimidazolidin-1-yl]-2-trifluoromethylbenzonitrile], on AR [1], 0.457 µM corresponded to half-maximal inhibition (IC50).
Same read-out and setting: the figure for `Cc1cc(N2C(=S)N(c3ccc(C#N)c(C(F)(F)F)c3)C(=O)C23CCC3)[nH]n1` [RD84, 4-[5-(5-methyl-2H-pyrazol-3-yl)-8-oxo-6-thioxo-5,7-diaza-spiro[3.4]oct-7-yl]-2-trifluoromethyl-benzonitrile, reference compound] is above 1 µM.
`N#Cc1ccc(N2C(=O)C3(CCC3)N(c3ccc(C=O)cc3)C2=S)cc1C(F)(F)F` [RD114, 4-[5-(4-formylphenyl)-8-oxo-6-thioxo-5,7-diazaspiro[3.4]oct-7-yl]-2-trifluoromethyl-benzonitrile] came in with an IC50 against AR [2] of 0.263 µM.
Consider `CC(O)c1ccc(N2C(=S)N(c3ccc(C#N)c(C(F)(F)F)c3)C(=O)C23CCC3)cc1` (stereo not shown) [RD116, 4-{5-[4-(1-hydroxyethyl)-phenyl]-8-oxo-6-thioxo-5,7-diazaspiro[3.4]oct-7-yl}-2-trifluoromethyl-benzonitrile], for which the IC50 against AR [2] came to 0.187 µM.
The same measure, in the same setting: for `N#Cc1ccc(N2C(=O)C3(CCC3)N(c3ccc(/C=C/C(N)=O)cc3)C2=S)cc1C(F)(F)F` [RD119, 3-{4-[7-(4-Cyano-3-trifluoromethyl-phenyl)-8-oxo-6-thioxo-5,7-diaza-spiro[3.4]oct-5-yl]-phenyl}-acrylamide] the value was 0.113 µM; for `N#Cc1ccc(N2C(=O)C3(CCC3)N(c3ccc(/C=C/CO)cc3)C2=S)cc1C(F)(F)F` [RD120, 4-{5-[4-(3-hydroxypropenyl)-phenyl]-8-oxo-6-thioxo-5,7-diazaspiro[3.4]oct-7-yl}-2-trifluoromethylbenzonitrile], 0.114 µM.
In the case of `COC(=O)CCc1ccc(N2C(=S)N(c3ccc(C#N)c(C(F)(F)F)c3)C(=O)C23CCC3)cc1` [RD128, 3-{4-[7-(4-cyano-3-trifluoromethylphenyl)-8-oxo-6-thioxo-5,7-diazaspiro[3.4]oct-5-yl]-phenyl}-propionic acid methyl ester], the “IC50 (nM) Reporter” value at AR [1] was “No”.
`COC(=O)CCCc1ccc(N2C(=S)N(c3ccc(C#N)c(C(F)(F)F)c3)C(=O)C23CCC3)cc1` [RD129, 4-{4-[7-(4-cyano-3-trifluoromethylphenyl)-8-oxo-6-thioxo-5,7-diazaspiro[3.4]oct-5-yl]-phenyl}-butyric acid methyl ester] displayed an IC50 against AR [1] of 0.432 µM.
As to `CS(=O)(=O)c1ccc(N2C(=S)N(c3ccc(C#N)c(C(F)(F)F)c3)C(=O)C23CCC3)cc1` [RD145, 4-[5-(4-methanesulfonylphenyl)-8-oxo-6-thioxo-5,7-diazaspiro[3.4]oct-7-yl]-2-trifluoromethylbenzonitrile], on AR [1], the “Luciferase activity in LNCaP-AR cells (FIG. 3)” value is “acted to reduce luciferase activity” and the “Rank order, most active to least active, relative luciferase activity (FIG. 3)” value was “RD152>RD153>RD145>RD163>RD161=RD162>bicalutamide”.
Consider `COC(=O)c1ccc(N2C(=S)N(c3ccc(C#N)c(C(F)(F)F)c3)C(=O)C2(C)C)cc1` [RD152, 4-[3-(4-cyano-3-trifluoromethylphenyl)-5,5-dimethyl-4-oxo-2-thioxo-imidazolidin-1-yl]benzoic acid methyl ester], for which, on AR [1], the “Luciferase activity in LNCaP-AR cells (FIG. 3)” value is “acted to reduce luciferase activity” and the “Rank order, most active to least active, relative luciferase activity (FIG. 3)” value is “RD152>RD153>RD145>RD163>RD161=RD162>bicalutamide”.
Turning to `CNC(=O)c1ccc(N2C(=S)N(c3ccc(C#N)c(C(F)(F)F)c3)C(=O)C2(C)C)cc1` [RD153, 4-[3-(4-cyano-3-trifluoromethylphenyl)-5,5-dimethyl-4-oxo-2-thioxo-imidazolidin-1-yl]-N-methylbenzamide], on AR [1], the “Luciferase activity in LNCaP-AR cells (FIG. 3)” value is given as “acted to reduce luciferase activity” and the “Rank order, most active to least active, relative luciferase activity (FIG. 3)” value is listed as “RD152>RD153>RD145>RD163>RD161=RD162>bicalutamide”. For the same compound, the “Luciferase activity, LN/AR cell line (FIG. 29)” value at AR [1] (for a given concentration, 125 nmol to 1000 nmol) is listed as “less than the luciferase activity upon exposure to RD155”.
With `CNC(=O)c1ccc(N2C(=S)N(c3ccc(C#N)c(C(F)(F)F)c3)C(=O)C23CCCC3)cc1F` [RD162″, 4-(3-(4-Cyano-3-(trifluoromethyl)phenyl)-4-oxo-2-thioxo-1,3-diazaspiro[4.4]nonan-1-yl)-2-fluoro-N-methylbenzamide], at AR [2], the “PSA levels of LN-AR cells (FIG. 21)” value is listed as “decreased”.
With `N#Cc1ccc(N2C(=O)C3(CCC3)N(c3ccc(O)cc3F)C2=S)cc1C(F)(F)F` [RD163, 4-[5-(2-fluoro-4-hydroxyphenyl)-8-oxo-6-thioxo-5,7-diazaspiro[3.4]oct-7-yl]-2-trifluoromethylbenzonitrile], on AR [1], the “Luciferase activity in LNCaP-AR cells (FIG. 3)” value is “acted to reduce luciferase activity” and the “Rank order, most active to least active, relative luciferase activity (FIG. 3)” value is given as “RD152>RD153>RD145>RD163>RD161=RD162>bicalutamide”.
For the compound `CN(C)C(=O)CCCc1ccc(N2C(=S)N(c3ccc(C#N)c(C(F)(F)F)c3)C(=O)C23CCC3)cc1` [RD169, 4-(4-(7-(4-Cyano-3-(trifluoromethyl)phenyl)-8-oxo-6-thioxo-5,7-diazaspiro[3.4]octan-5-yl)phenyl)-N,N-dimethylbutanamide], the “PSA levels of LN-AR cells (FIG. 21)” value on AR [2] is listed as “decreased”.
`N#CCCCc1ccc(N2C(=S)N(c3ccc(C#N)c(C(F)(F)F)c3)C(=O)C23CCC3)cc1` [RD170, 4-(5-(4-(3-Cyanopropyl)phenyl)-8-oxo-6-thioxo-5,7-diazaspiro[3.4]octan-7-yl)-2-(trifluoromethyl)benzonitrile]: the “PSA levels of LN-AR cells (FIG. 21)” value at AR [2] is “decreased”.
